Source: paper PMC3264552, “Expression in Antennae and Reproductive Organs Suggests a Dual Role of an Odorant-Binding Protein in Two Sibling Helicoverpa Species” (PLoS ONE, 2012)
Where two headings read alike, the source gives them in different places.

Experiments:
recombinant HarmOBP10 [1] = biological target: T1, recombinant HarmOBP10 (Helicoverpa armigera, UniProt G9I573); assay: Competitive fluorescence binding assay (displacement of 1-NPN from HarmOBP10); conditions: for activity at 6 µM / activity at 16 µM / activity at 1.6 µM: read-out: % at max (percent of fluorescence measured at the maximum concentration); for quality as ligand of OBP10, in words: authors' comment on Table 1; for activity at 1.6 µM: max conc 1.6 (titration 0.5–1.6 µM)
Method: Emission fluorescence spectra were recorded on a Hitachi F-4500 at 25°C in a right angle configuration, with a 1 cm light path quartz cuvette and 5 nm slits for both excitation and emission. The protein was dissolved in 50 mM Tris-HCl buffer, pH 7.4, while ligands were added as 1 mM methanol solutions.
The probe was excited at 337 nm and emission spectra were recorded between 380 and 450 nm. […] Dissociation constant for 1-NPN and the stoichiometry of binding was obtained processing the data with Prism software.

recombinant HarmOBP10 [2] = biological target: T1, recombinant HarmOBP10; assay: Fluorescence binding assay of the probe 1-NPN to recombinant HarmOBP10
Method: Emission fluorescence spectra were recorded on a Hitachi F-4500 at 25°C in a right angle configuration, with a 1 cm light path quartz cuvette and 5 nm slits for both excitation and emission. […]
The probe was excited at 337 nm and emission spectra were recorded between 380 and 450 nm. […] Dissociation constant for 1-NPN and the stoichiometry of binding was obtained processing the data with Prism software. Dissociation constants of the competitors were calculated from the corresponding IC50 values (concentrations of ligands halving the initial fluorescence value of 1-NPN), using the equation: KD = [IC50]/1+[1-NPN]/K1-NPN, [1-NPN] being the free concentration of 1-NPN and K1-NPN being the dissociation constant of the complex protein/1-NPN.

[3] = max conc 6 (titration 0.5–6 µM), protein and 1-NPN both 2 µM, percent of fluorescence without competitor
[4] = calculated from IC50: KD = [IC50]/1+[1-NPN]/K1-NPN, read-out: KD (calculated dissociation constant)
[5] = max conc 16 (titration 2–16 µM), protein and 1-NPN both 2 µM, percent of fluorescence without competitor
[6] = protein and 1-NPN both 2 µM, Tris pH 7.4, unit from method text, not in table, read-out: IC50 (concentration of ligand halving the initial fluorescence value)
[7] = protein and 1-NPN both 2 µM, percent of fluorescence without competitor

T1 sequence (G9I573 entry or part of it): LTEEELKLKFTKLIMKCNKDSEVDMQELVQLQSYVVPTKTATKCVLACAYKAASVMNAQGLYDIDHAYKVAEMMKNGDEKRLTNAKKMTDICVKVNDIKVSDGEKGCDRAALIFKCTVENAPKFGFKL

CCCCCCCCCCCCCCCCCCO [1-Octadecanol]
activity at 6 µM (recombinant HarmOBP10 [1]; [3]): 56%

CC(CCCC(C)(C)O)CC(=O)O (stereo not shown) [Hydroxycitronellic acid]
Kd (recombinant HarmOBP10 [1]; [4]): 12.4 µM
% at max (percent of fluorescence measured at the maximum concentration) (recombinant HarmOBP10 [1]; [5]): 50%
IC50 (recombinant HarmOBP10 [1]; [6]): 16 µM

CC(C)(C)c1ccc(C(=O)c2ccccc2)cc1 [p-tert-Butylbenzophenone]
quality as ligand of OBP10, in words (recombinant HarmOBP10 [1]): Even better ligands
Kd (recombinant HarmOBP10 [1]; [4]): 2.6 µM
% at max (percent of fluorescence measured at the maximum concentration) (recombinant HarmOBP10 [1]; [5]): 13%
IC50 (recombinant HarmOBP10 [1]; [6]): 3.3 µM

CCCCCCCCCCCC(=O)OCC [Ethyl laurate]
activity at 6 µM (recombinant HarmOBP10 [1]; [3]): 70%

CCCCCCCCCCCC(C)=O [2-Tridecanone]
activity at 16 µM (recombinant HarmOBP10 [1]; [5]): 60%

CCCCCCCCCCCCS [1-Dodecanthiol]
activity at 6 µM (recombinant HarmOBP10 [1]; [3]): 62%

COC(=O)C=Cc1ccccc1 [Methyl cinnamate]
activity at 16 µM (recombinant HarmOBP10 [1]; [5]): > 100%

CC(C)c1ccc(C=O)cc1 [p-Isopropylbenzaldehyde]
% at max (percent of fluorescence measured at the maximum concentration) (recombinant HarmOBP10 [1]; [5]): 77%

CCCCCCCCCCCCCCCCO [1-Hexadecanol]
activity at 6 µM (recombinant HarmOBP10 [1]; [3]): 55%

CCCCCCCCC=O [Nonanal]
activity at 16 µM (recombinant HarmOBP10 [1]; [5]): > 100%

CCCCCCCCCC=O [Decanal]
activity at 16 µM (recombinant HarmOBP10 [1]; [5]): > 100%

CC(C)=CCC/C(C)=C/CC/C(C)=C/CO [Farnesol]
Kd (recombinant HarmOBP10 [1]; [4]): 5.4 µM
activity at 6 µM (recombinant HarmOBP10 [1]): 54%

c1ccc(Nc2cccc3ccccc23)cc1 [1-NPN]
Kd (recombinant HarmOBP10 [2]; 2 µM protein in 50 mM Tris-HCl, pH 7.4, single binding site, averages of three replicates, read-out: dissociation constant of 1-NPN): 5.7 µM
effect of pH on affinity of 1-NPN (recombinant HarmOBP10 [2]; pH range from 5 to 9.4): marked loss of affinity in acidic conditions

CCCCOC(=O)c1ccccc1 [n-Butyl benzoate]
quality as ligand of OBP10, in words (recombinant HarmOBP10 [1]): poor ligand
activity at 16 µM (recombinant HarmOBP10 [1]; [5]): 62%

COc1ccc(-c2ccccc2)cc1 [4-Phenylanisole]
activity at 16 µM (recombinant HarmOBP10 [1]; [5]): 65%

CCCCCCCCCCCCCCO [1-Tetradecanol]
IC50 (recombinant HarmOBP10 [1]): 1.8 µM
Kd (recombinant HarmOBP10 [1]): 1.4 µM
quality as ligand of OBP10, in words (recombinant HarmOBP10 [1]): maximum of affinity
activity at 6 µM (recombinant HarmOBP10 [1]): 36%

CCCCCCCCCC(=O)OCC [Ethyl decanoate]
Kd (recombinant HarmOBP10 [1]; [4]): 4.3 µM
IC50 (recombinant HarmOBP10 [1]; [6]): 5.5 µM
activity at 6 µM (recombinant HarmOBP10 [1]): 44%

CCCC/C=C\CCCCCCCCCCO [(Z)-11-Hexadecen-1-ol]
activity at 1.6 µM (recombinant HarmOBP10 [1]; [7]): 74%

CC(C)=CCC/C(C)=C/CO [Geraniol]
activity at 16 µM (recombinant HarmOBP10 [1]; [5]): 69%

CCCCCCCCCCCC=O [Dodecanal]
activity at 6 µM (recombinant HarmOBP10 [1]; [3]): 73%

CCCC/C=C\CCCCCCCCCC=O [(Z)-11-Hexadecenal]
activity at 1.6 µM (recombinant HarmOBP10 [1]; [7]): 76%

CCCCCCCCCCC(C)=O [2-Dodecanone]
Kd (recombinant HarmOBP10 [1]; [4]): 13.2 µM
activity at 16 µM (recombinant HarmOBP10 [1]; [5]): 51%

CC(C=O)Cc1ccc(C(C)C)cc1 (stereo not shown) [Cyclamen aldehyde]
% at max (percent of fluorescence measured at the maximum concentration) (recombinant HarmOBP10 [1]; [5]): >100%

CC(C)=CCC/C(C)=C/C=O [Citral]
activity at 16 µM (recombinant HarmOBP10 [1]): 66%

CC(=O)OCCc1ccccc1 [2-Phenylethyl acetate]
activity at 16 µM (recombinant HarmOBP10 [1]; [5]): 77%

CCCCCC/C=C\CCCCCCCCO [(Z)-9-Hexadecen-1-ol]
activity at 1.6 µM (recombinant HarmOBP10 [1]; [7]): 65%

C=CCCCCCCCCCC [1-Dodecene]
IC50 (recombinant HarmOBP10 [1]): 6 µM
Kd (recombinant HarmOBP10 [1]): 4.7 µM
quality as ligand of OBP10, in words (recombinant HarmOBP10 [1]): rather good ligand
activity at 6 µM (recombinant HarmOBP10 [1]): 50%

CC(=O)OCCC(C)CCCC(C)C (stereo not shown) [3,7-Dimethyloctyl acetate]
activity at 16 µM (recombinant HarmOBP10 [1]; [5]): 59%

CC(CC=O)CCCC(C)(C)O (stereo not shown) [Hydroxycitronellal]
Kd (recombinant HarmOBP10 [1]; [4]): 10.5 µM
activity at 16 µM (recombinant HarmOBP10 [1]; [5]): 48%
IC50 (recombinant HarmOBP10 [1]; [6]): 13.5 µM

COc1cc(/C=C/C=O)ccc1O [Coniferyl aldehyde]
IC50 (recombinant HarmOBP10 [1]): 7.5 µM
Kd (recombinant HarmOBP10 [1]): 5.8 µM
activity at 16 µM (recombinant HarmOBP10 [1]): 30%

CCCCCCCCCCCCCO [1-Tridecanol]
activity at 6 µM (recombinant HarmOBP10 [1]; [3]): 85%

O=C(O)/C=C/c1ccccc1 [Cinnamic acid]
activity at 16 µM (recombinant HarmOBP10 [1]): 74%

CCCCCCCCCCCCCCCC(=O)OCC [Ethyl palmitate]
activity at 6 µM (recombinant HarmOBP10 [1]; [3]): 69%

C=CCc1ccc(O)c(OC)c1 [Eugenol]
activity at 16 µM (recombinant HarmOBP10 [1]): 80%

Cc1ccc2ccccc2c1 [2-Methylnaphthalene]
activity at 16 µM (recombinant HarmOBP10 [1]): 75%

CC(C)=CCCC(C)=CC#N [Citralva]
% at max (percent of fluorescence measured at the maximum concentration) (recombinant HarmOBP10 [1]; [5]): 60%

CC(C)CCCC(C)CCOC(=O)c1ccccc1 (stereo not shown) [3,7-Dimethyloctyl benzoate]
Kd (recombinant HarmOBP10 [1]; [4]): 4.7 µM
activity at 16 µM (recombinant HarmOBP10 [1]; [5]): 34%
IC50 (recombinant HarmOBP10 [1]; [6]): 6 µM

CCCCCCCCCCCCOC(C)=O [Dodecyl acetate]
activity at 16 µM (recombinant HarmOBP10 [1]; [5]): > 100%

CCCCC/C(C=O)=C/c1ccccc1 [a-Amylcinnamaldehyde]
quality as ligand of OBP10, in words (recombinant HarmOBP10 [1]): Even better ligands
Kd (recombinant HarmOBP10 [1]; [4]): 2.7 µM
% at max (percent of fluorescence measured at the maximum concentration) (recombinant HarmOBP10 [1]; [5]): 13%
IC50 (recombinant HarmOBP10 [1]; [6]): 3.5 µM

CCCCC/C=C\C/C=C\CCCCCCCC(=O)O [Linoleic acid]
activity at 6 µM (recombinant HarmOBP10 [1]; [3]): 56%

CCCCOC(=O)C=Cc1ccccc1 [n-Butyl cinnamate]
Kd (recombinant HarmOBP10 [1]; [4]): 9.7 µM
% at max (percent of fluorescence measured at the maximum concentration) (recombinant HarmOBP10 [1]; [5]): 42%
IC50 (recombinant HarmOBP10 [1]; [6]): 12.5 µM

O=C(O)CCCc1ccccc1 [4-Phenylbutyric acid]
activity at 16 µM (recombinant HarmOBP10 [1]; [5]): 73%

CCCCCC/C=C\CCCCCCCC=O [(Z)-9-Hexadecenal]
activity at 1.6 µM (recombinant HarmOBP10 [1]; [7]): 73%

CCCCCCCCCCCCCC(=O)OCC [Ethyl myristate]
activity at 6 µM (recombinant HarmOBP10 [1]; [3]): 73%

CCCCCCCCCC(=O)O [Decanoic acid]
activity at 6 µM (recombinant HarmOBP10 [1]; [3]): 62%

CCCCCCCCCCO [1-Decanol]
activity at 6 µM (recombinant HarmOBP10 [1]; [3]): 63%

CCCCCCCCOC(=O)c1ccccc1 [n-Octyl benzoate]
quality as ligand of OBP10, in words (recombinant HarmOBP10 [1]): the best
Kd (recombinant HarmOBP10 [1]; [4]): 3.1 µM
% at max (percent of fluorescence measured at the maximum concentration) (recombinant HarmOBP10 [1]; [5]): 29%
IC50 (recombinant HarmOBP10 [1]; [6]): 4 µM

CCCCCCOC(=O)c1ccccc1 [n-Hexyl benzoate]
Kd (recombinant HarmOBP10 [1]; [4]): 5.8 µM
% at max (percent of fluorescence measured at the maximum concentration) (recombinant HarmOBP10 [1]; [5]): 35%
IC50 (recombinant HarmOBP10 [1]; [6]): 7.5 µM

CCCCOC(=O)c1ccc(C(C)(C)C)cc1 [Butyl p-tert-butylbenzoate]
Kd (recombinant HarmOBP10 [1]; [4]): 10.9 µM
% at max (percent of fluorescence measured at the maximum concentration) (recombinant HarmOBP10 [1]; [5]): 48%
IC50 (recombinant HarmOBP10 [1]; [6]): 14 µM

COC(C=O)=Cc1ccccc1 [a-Methoxycinnamaldehyde]
Kd (recombinant HarmOBP10 [1]; [4]): 9.7 µM
% at max (percent of fluorescence measured at the maximum concentration) (recombinant HarmOBP10 [1]; [5]): 37%
IC50 (recombinant HarmOBP10 [1]; [6]): 12.5 µM

COc1cc(CC(=O)O)ccc1O [Homovanillic acid]
activity at 16 µM (recombinant HarmOBP10 [1]): 66%
